Assay results published in patent publication EP4548971A1, “1,4-BENZOTHIAZEPINES AND RELATED COMPOUNDS WITH CYCLOPROPANOL GROUPS AS MULTI-TARGETED DRUGS” (Georg-August-Universität Göttingen Stiftung Öffentlichen …, priority 2023, dated 2025).

Assays:
Format in all cases: cell-based
[1] = system: saponin-permeabilized ventricular cardiomyocytes (sp-vCM) from RyR2R2474S/+ mice; test: Ca2+ wave decay in saponin-permeabilized ventricular cardiomyocytes, RyR2R2474S/+ mice; details: 10 µM, result in words
Text: (§1) • Figure 1: Synthesis scheme showing the synthesis of multifunctional compounds with cyclopropanol residues based on 1,4 -benzothiazepines. The respective reaction conditions (a) to (i) are as follows: (a) Jones reagent, aceton; (b) H2SO4, EtOH; (c) EtMgBr, Ti(OiPr)4, EtzO; (d) t-BuMe2SiOSO2CF3, 2,6-lutidine, DCM; (e) Hz, Pd/C, THF; (f) Dess-Martin reagent, DCM; (g) K2CO3, 1,4-dioxane; (h) N2H4*H2O, EtOH; (i) Na(CH3COO)3BH, 1,2-dichloroethane; (j) NaH, DMF; (k) aq. HF (55%), MeCN or 1 M n-Bu4NF in THF or KF, Et3N*HCl, MeOH. m,n = 2-8. • Figure 2: Synthesis scheme showing the synthesis of multifunctional compounds with cyclopropanol residues based on the "open" analogs 1,4 -benzothiazepines (i.e. 3-[(4-methoxyphenyl)oxy]-and 3-[(4-methoxyphenylthio)]propane-1-amine derivatives). […] Values represent the mean ± S.D., *** P < 0.0005, **** P < 0.0001 vs. DMSO by unpaired t test; n = 6 - 28. • Figure 6: Time-lapse fluorescence measurements using TECAN Spark 20M plate reader with HEK293 cells expressing WT RyR2 and R-CEPIA1er indicator. […] Fluorescence ratio F/F0, where F0 - average fluorescence signal for the first 90 seconds, F- average fluorescence signal for the last 100 s, was taken for the calculations. […] Data sets were analyzed by unpaired Student's t-test. n.s. non-significant with P=0.59 for Dan, **, P<0.01 with P=0.003 for S36, and *, P<0.05 with P=0.019 for GM1869; (D, E, F) Relative changes in the decay time tau of Ca2+ transients from spontaneous Ca2+ waves (in control/drug) by Dan (D, 10µM), S36 (E, 10 µM), and GM1869 (F, 10 µM) in cardiomyocytes from WT and RyR2R2474S/+ mice. […] Rise times represent the tau values calculated by a mono-exponential fit of the Ca2+ transients from start to the peak of the signal. Ca2+ transients were recorded in control conditions and every 2 min (S36) or 4 min (GM1869) after drug application. **, P = 0.0065 for S36; ****, P = 0.000019 for GM1869, evaluated by paired Student's t-test. […] Decay times represent the tau values calculated by a mono-exponential fit of the Ca2+ transients from half maximum to baseline of the signal. […]

[2] = system: saponin-permeabilized ventricular cardiomyocytes (sp-vCM) from WT mice; test: Ca2+ wave decay in saponin-permeabilized ventricular cardiomyocytes, WT mice; details: 10 µM, result in words
Text: as §1

[3] = biological target: T1, WT RyR2 (Mus musculus, UniProt E9Q401); test: Time-lapse [Ca2+]ER assay (RyR2 R-CEPIA1er assay) in HEK-293 cells; details: 25 µM, vs. 0.1 v/v% DMSO
T1 construct: expressed in transfected cells
Protocol: HEK-293 cells stably expressing R-CEPIA1er and WT RyR2 (generous gift from Takashi Murayama, Juntendo University School of Medicine, Tokyo) were cultured in Dulbecco's Modified Eagle medium (DMEM, Thermo Fisher Scientific, Darmstadt, Germany) supplemented with 10% fetal bovine serum (FBS, Thermo Fisher Scientific, Darmstadt, Germany), 0.9% Penicillin/Streptomycin (Merck KGaA, Darmstadt, Germany), 15ug/mL Blasticidine (Invivogen, Toulouse, France), 100 µg/mL Hygromycin (Merck KGaA, Darmstadt, Germany) and 400 µg/mL G418 (Thermo Fisher Scientific, Darmstadt, Germany) in a humidified 5% COz incubator at 37 °C. To induce the expression of WT RyR2 in the endoplasmic reticulum (ER), 2 µg/mL Doxycycline (Merck KGaA, Darmstadt, Germany) was added 24 h before experiments.
The fluorescent plate reader [Ca^2+]ER assay was performed according to the slightly modified protocol of Murayama & Kurebayashi [T. Murayama, N. Kurebayashi, Assays for Modulators of Ryanodine Receptor (RyR)/Ca(2+) Release Channel Activity for Drug Discovery for Skeletal Muscle and Heart Diseases. Curr. Protoc. […] After the cells were inducted with Doxycycline for 24 h, changes in ER calcium concentrations [Ca^2+]ER were measured on a multiwell plate reader TECAN Spark 20M at 37 °C. The 1000 × stock solutions of the test compounds were prepared in DMSO. Briefly, the culture medium was removed and 100 µl of Tyrode's solution containing 2 mM CaCl2 was added to the cells. The time courses were recorded in each well. Fluorescence was evoked by 560 nm excitation wavelength and collected in a bottom-read mode at 610 nm. Data was recorded every 10 s, exposure - 20 flashes, excitation bandwidth - 20 nm, emission bandwidth - 20 nm. 100 µl of 0 - 100 µM solution of test compound in Tyrode's solution containing 2 mM CaCh was injected in each well (speed 100 µl/s) at the 90 s time point. […] The 0.1 v/v% DMSO and 2 mM CaCh Tyrode's solution was used as a control.
The dose response curves were calculated using the software package GraphPad Prism version 8.3.1. (GraphPad Software, Inc.). All data are presented as mean ± S.D. in 3 independent experiments. Y=Bottom + (Top-Bottom)/(1+10^((LogEC50-X)*HillSlope)) was used where HillSlope describes the steepness of the curve, Top and Bottom are plateaus in the units of the Y axis.
The inventors measured changes in Ca^2+ levels in the endoplasmic reticulum (ER) of HEK-293 cells with inducible expression of wild-type RyR2 (WT RyR2) [T. Murayama, N. Kurebayashi, M. Ishigami-Yuasa, S. Mori, Y. Suzuki, R. Akima, H. Ogawa, J. Suzuki, K. Kanemaru, H. Oyamada, Y. Kiuchi, M. Iino, H. Kagechika, T. Sakurai, Efficient High-Throughput Screening by Endoplasmic Reticulum Ca(2+) Measurement to Identify Inhibitors of Ryanodine Receptor Ca(2+)-Release Channels. […] The cells additionally stably express the Ca^2+ fluorescence indicator R-CEPIA1er, which is a genetically encoded sensor protein of Ca^2+ in the ER ([Ca^2+]ER) [T. Murayama, N. Kurebayashi, Assays for Modulators of Ryanodine Receptor (RyR)/Ca(2+) Release Channel Activity for Drug Discovery for Skeletal Muscle and Heart Diseases. Curr. Protoc.
The fluorescence ratio F/F0 was calculated, where F0 - is the average fluorescence for the first 90 s, F - is the average fluorescence for the last 100 s, and normalized.

T1 sequence (E9Q401 whole entry): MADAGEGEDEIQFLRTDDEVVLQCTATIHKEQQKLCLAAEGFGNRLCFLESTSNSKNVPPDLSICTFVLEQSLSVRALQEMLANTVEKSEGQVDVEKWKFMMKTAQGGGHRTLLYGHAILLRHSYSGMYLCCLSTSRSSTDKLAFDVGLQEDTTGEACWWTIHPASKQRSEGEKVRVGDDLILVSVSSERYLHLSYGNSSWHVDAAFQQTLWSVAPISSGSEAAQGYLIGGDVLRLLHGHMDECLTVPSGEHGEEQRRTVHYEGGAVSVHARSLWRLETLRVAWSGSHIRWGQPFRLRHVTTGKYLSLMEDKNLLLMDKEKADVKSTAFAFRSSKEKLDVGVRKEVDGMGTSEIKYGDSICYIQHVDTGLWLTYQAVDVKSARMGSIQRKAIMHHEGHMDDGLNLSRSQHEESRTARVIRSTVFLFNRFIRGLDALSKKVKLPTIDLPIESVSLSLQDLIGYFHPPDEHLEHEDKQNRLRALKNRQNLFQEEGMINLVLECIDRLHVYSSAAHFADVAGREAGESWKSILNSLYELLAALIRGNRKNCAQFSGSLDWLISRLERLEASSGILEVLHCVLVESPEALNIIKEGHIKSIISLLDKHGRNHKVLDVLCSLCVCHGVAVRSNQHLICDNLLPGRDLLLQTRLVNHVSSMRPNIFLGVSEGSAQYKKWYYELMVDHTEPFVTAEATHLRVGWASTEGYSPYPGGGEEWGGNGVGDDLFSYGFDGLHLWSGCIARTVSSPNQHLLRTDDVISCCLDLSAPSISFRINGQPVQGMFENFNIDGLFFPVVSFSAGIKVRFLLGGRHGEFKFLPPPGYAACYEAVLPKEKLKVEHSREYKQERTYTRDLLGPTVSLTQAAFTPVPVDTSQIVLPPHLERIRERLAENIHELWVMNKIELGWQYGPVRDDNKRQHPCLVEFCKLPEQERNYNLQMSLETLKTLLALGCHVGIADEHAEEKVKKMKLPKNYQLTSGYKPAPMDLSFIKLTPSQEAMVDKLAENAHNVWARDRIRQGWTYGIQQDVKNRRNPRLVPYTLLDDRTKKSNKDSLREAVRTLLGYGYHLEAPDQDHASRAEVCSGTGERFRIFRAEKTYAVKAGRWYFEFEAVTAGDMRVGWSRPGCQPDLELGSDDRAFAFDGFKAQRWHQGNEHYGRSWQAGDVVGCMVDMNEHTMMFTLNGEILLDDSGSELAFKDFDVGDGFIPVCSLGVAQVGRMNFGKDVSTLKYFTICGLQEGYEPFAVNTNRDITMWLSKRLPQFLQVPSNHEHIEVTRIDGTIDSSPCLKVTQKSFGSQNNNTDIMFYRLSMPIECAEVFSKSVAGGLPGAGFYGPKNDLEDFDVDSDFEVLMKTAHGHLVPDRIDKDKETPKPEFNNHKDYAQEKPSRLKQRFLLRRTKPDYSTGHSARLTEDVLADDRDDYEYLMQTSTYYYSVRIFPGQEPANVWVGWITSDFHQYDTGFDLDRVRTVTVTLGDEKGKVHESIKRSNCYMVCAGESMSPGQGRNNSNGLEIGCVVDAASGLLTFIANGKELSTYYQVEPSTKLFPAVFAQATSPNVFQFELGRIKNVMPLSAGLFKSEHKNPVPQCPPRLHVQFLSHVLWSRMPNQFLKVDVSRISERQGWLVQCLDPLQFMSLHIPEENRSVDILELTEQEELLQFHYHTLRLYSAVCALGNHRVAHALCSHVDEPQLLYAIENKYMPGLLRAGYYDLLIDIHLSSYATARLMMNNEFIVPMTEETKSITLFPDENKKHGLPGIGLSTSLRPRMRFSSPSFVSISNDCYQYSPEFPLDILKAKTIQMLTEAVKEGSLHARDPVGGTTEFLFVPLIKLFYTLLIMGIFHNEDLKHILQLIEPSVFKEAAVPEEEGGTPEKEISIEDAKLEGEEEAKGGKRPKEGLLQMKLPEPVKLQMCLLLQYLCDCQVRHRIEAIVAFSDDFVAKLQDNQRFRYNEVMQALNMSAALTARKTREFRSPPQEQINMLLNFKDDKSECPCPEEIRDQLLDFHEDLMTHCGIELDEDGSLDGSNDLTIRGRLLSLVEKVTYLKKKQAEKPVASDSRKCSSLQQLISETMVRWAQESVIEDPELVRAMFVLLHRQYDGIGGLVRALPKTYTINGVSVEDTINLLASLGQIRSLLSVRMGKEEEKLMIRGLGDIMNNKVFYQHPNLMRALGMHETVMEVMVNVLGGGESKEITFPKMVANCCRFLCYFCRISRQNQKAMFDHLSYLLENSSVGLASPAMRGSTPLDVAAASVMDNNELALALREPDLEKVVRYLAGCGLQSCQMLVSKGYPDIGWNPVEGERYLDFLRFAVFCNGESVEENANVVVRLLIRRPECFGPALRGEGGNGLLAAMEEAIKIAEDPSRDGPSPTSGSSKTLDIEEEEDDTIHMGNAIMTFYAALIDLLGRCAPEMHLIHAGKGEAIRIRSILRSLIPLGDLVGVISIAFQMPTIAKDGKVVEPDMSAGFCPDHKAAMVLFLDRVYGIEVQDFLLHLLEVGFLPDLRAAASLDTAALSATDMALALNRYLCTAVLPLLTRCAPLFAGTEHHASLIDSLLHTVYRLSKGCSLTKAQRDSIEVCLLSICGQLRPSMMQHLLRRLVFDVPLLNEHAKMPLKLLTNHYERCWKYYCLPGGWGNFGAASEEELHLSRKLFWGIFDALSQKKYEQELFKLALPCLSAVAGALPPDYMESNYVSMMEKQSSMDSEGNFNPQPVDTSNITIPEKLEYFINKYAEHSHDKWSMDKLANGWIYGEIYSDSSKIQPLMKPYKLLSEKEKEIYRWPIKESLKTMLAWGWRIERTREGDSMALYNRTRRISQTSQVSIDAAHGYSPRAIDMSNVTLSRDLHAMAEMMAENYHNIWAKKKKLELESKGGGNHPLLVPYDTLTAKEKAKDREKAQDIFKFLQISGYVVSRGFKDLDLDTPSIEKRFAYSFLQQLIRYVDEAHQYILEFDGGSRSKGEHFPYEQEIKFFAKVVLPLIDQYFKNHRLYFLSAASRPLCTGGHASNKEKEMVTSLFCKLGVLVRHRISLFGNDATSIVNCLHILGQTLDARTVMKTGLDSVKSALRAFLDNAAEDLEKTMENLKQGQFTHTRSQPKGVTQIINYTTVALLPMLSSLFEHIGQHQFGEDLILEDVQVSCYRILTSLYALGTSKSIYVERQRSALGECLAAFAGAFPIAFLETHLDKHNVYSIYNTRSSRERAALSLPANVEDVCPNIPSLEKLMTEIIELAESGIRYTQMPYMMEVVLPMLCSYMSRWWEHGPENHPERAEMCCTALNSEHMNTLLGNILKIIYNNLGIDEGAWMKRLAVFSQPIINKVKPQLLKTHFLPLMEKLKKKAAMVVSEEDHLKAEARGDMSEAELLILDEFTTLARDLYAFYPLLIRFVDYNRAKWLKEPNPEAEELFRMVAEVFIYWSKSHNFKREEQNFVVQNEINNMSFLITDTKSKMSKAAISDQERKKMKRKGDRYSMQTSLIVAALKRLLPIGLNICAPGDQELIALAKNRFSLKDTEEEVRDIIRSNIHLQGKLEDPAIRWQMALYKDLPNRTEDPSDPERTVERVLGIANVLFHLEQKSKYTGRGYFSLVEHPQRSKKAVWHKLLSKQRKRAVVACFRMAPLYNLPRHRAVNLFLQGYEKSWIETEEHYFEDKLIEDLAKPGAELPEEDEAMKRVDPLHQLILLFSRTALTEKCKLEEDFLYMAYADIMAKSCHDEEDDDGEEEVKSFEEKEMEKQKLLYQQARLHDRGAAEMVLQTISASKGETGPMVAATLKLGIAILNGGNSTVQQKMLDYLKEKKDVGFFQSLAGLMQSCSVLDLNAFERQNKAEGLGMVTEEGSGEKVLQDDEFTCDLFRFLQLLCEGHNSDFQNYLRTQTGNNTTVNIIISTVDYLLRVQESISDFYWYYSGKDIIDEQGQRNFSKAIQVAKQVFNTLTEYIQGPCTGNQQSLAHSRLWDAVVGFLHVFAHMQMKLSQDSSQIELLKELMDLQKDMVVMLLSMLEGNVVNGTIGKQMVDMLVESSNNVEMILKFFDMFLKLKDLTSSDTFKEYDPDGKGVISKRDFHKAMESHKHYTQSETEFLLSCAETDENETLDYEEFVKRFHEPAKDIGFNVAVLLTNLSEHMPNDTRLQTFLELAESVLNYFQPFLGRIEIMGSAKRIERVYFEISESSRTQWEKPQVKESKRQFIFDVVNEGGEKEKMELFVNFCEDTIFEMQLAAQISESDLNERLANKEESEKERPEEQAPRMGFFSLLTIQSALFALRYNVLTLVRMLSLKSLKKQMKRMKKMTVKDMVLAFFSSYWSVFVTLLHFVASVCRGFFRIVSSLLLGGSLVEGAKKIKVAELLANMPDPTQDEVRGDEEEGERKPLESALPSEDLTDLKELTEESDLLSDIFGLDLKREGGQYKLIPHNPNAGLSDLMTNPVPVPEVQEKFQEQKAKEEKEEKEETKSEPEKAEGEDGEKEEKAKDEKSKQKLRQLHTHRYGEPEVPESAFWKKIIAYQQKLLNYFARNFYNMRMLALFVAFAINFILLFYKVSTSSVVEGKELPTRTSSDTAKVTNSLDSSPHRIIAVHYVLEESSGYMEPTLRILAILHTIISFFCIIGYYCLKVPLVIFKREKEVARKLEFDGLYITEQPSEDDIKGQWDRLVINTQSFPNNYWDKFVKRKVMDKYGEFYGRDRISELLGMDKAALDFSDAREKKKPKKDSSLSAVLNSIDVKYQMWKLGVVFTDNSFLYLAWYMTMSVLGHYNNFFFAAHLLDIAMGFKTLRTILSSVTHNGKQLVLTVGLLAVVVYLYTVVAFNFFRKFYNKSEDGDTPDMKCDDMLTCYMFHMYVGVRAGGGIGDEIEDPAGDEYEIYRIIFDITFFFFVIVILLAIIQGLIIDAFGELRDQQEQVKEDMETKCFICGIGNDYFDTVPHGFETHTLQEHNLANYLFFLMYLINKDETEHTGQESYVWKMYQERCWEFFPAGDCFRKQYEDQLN

## O=C1CN(/N=C/c2ccc(-c3ccc([N+](=O)[O-])cc3)o2)C(O)=N1 [dantrolene]
[1]
  Relative changes in the decay time tau of Ca2+ transients from spontaneous Ca2+ waves (in control/drug): significantly above 1
[2]
  Relative changes in the decay time tau of Ca2+ transients from spontaneous Ca2+ waves (in control/drug): significantly above 1
[3]
  effect on [Ca^2+]ER (R-CEPIA1er fluorescence), in words: increase in R-CEPIA1er fluorescence
